From patent US8598211B2, “Carboxamide compounds and their use as calpain inhibitors IV” (AbbVie Inc., priority 2009, dated 2013)

Experiments:
Type in all cases: biochemical
calpain-I = target: T1, calpain-I (Homo sapiens, UniProt P07384); test: Calpain I kinetic fluorescence enzyme inhibition assay; settings: calpain-I from human erythrocytes, Suc-Leu-Tyr-AMC, pH 7.3; apparent Ki from IC50 by Cheng-Prussoff
T1 construct: calpain-I—isolated from human erythrocytes; purchased Calbiochem 208713; host or cells: human erythrocytes (natural source)
T1 sequence (P07384 1-714): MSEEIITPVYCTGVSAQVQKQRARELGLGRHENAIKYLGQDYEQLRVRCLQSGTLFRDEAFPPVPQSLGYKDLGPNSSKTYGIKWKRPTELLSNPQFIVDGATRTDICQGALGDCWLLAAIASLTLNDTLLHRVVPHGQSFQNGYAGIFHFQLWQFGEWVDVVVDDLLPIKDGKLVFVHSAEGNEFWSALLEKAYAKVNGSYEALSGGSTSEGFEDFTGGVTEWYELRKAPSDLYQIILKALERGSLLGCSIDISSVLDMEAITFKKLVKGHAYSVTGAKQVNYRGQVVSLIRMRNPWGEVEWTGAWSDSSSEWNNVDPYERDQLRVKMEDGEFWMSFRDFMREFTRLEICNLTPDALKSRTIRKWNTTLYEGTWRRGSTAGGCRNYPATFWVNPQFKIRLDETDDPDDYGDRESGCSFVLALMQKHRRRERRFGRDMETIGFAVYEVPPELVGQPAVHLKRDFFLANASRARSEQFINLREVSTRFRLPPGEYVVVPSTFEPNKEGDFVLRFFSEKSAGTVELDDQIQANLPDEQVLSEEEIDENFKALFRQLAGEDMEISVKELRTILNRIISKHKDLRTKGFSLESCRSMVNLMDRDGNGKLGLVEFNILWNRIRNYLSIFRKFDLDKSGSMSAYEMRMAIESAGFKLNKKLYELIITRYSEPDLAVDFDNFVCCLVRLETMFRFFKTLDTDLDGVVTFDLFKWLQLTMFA
T1 sequence (P04632 1-268 partner): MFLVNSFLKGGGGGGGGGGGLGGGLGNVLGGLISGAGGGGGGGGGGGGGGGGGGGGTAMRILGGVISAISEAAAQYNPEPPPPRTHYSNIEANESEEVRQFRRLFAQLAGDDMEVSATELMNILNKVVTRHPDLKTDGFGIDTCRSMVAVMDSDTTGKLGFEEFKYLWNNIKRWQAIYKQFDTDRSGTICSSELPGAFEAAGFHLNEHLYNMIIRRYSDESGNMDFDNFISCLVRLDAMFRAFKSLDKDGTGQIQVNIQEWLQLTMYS
Description: Testing for blockade of the corresponding enzymic activities was carried out by means of kinetic fluorescence assays (excitation 390 nm, emission 460 nm).
Apparent Ki values were calculated from the experimentally determined IC50 values by the Cheng-Prussoff relation assuming a reversible competitive enzyme inhibition.
20 nM calpain-I—isolated from human erythrocytes (Calbiochem #208713), 100 μM Suc-Leu-Tyr-AMC (Bachem #I-1355) as substrate in buffer with 62 mM imidazole, 0.3 mM CaCl2, 0.10% CHAPS, 0.05% BSA, 1 mM DTT at pH 7.3 and room temperature.

cathepsin B = target: T2, cathepsin B (Homo sapiens, UniProt P07858); test: Cathepsin B kinetic fluorescence enzyme inhibition assay; settings: selectivity ratio versus calpain
T2 construct: cathepsin B—isolated from human liver; purchased Calbiochem 219362; host or cells: human liver (natural source)
Description: 0.25 nM cathepsin B—isolated from human liver (Calbiochem #219362), 100 μM Z-Phe-Arg-AMC (Bachem #I-1160) as substrate 50 mM MES, 2 mM EDTA, 0.05% Brij 35, 2.5 mM L-cysteine, pH 6.0, room temperature.

cathepsin K = target: T3, cathepsin K (Homo sapiens, UniProt P43235); test: Cathepsin K kinetic fluorescence enzyme inhibition assay; settings: selectivity ratio versus calpain
T3 construct: purchased Calbiochem 342001; host or cells: E. coli
T3 sequence (P43235 115-329): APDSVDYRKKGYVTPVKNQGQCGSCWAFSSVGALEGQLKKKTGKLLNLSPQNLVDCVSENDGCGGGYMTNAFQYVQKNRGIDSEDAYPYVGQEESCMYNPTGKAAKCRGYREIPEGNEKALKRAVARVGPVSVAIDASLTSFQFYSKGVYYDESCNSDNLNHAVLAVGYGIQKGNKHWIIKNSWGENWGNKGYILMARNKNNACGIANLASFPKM
Description: 3 nM cathepsin K—activated from recombinant human procathepsin K from E. coli (Calbiochem #342001), 10 μM Z-Gly-Pro-Arg-AMC (Biomol #P-142) as substrate in 50 mM MES, 2 mM EDTA, 0.05% Brij 35, 2.5 mM L-cysteine, pH 6.0, room temperature.

cathepsin L = target: T4, cathepsin L (Homo sapiens, UniProt P07711); test: Cathepsin L kinetic fluorescence enzyme inhibition assay; settings: selectivity ratio versus calpain
T4 construct: cathepsin L—isolated from human liver; purchased Calbiochem 219402; host or cells: human liver (natural source)
Description: 1 nM cathepsin L—isolated from human liver (Calbiochem #219402), 2 μM Z-Phe-Arg-AMC (Bachem #I-1160) as substrate in 50 mM MES, 2 mM EDTA, 0.05% Brij 35, 2.5 mM L-cysteine, pH 6.0, room temperature.

cathepsin S = target: T5, cathepsin S (Homo sapiens, UniProt P25774); test: Cathepsin S kinetic fluorescence enzyme inhibition assay; settings: selectivity ratio versus calpain
T5 construct: purchased Calbiochem 219343; host or cells: E. coli
T5 sequence (P25774 115-331): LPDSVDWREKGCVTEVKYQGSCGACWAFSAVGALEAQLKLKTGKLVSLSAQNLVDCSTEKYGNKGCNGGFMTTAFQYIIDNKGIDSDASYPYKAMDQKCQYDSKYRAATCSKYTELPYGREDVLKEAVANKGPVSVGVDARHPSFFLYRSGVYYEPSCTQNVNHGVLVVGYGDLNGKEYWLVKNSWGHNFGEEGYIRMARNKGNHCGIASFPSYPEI
Description: 0.5 nM recombinant human cathepsin S from E. coli (Calbiochem #219343), 20 μM Z-Val-Val-Arg-AMC (Bachem #I-1540) as substrate in 50 mM MES, 2 mM EDTA, 0.05% Brij 35, 2.5 mM L-cysteine, pH 6.0, room temperature.

T4 sequence (P07711 114-333): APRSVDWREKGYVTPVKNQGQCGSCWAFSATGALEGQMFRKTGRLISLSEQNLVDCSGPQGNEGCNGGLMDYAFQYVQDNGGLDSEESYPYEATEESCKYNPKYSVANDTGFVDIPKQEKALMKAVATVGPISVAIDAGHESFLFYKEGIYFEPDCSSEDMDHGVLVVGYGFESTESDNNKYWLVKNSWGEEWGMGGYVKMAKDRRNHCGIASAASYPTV

Row | Ki (calpain-I) [nM] | Sel cat. B (Ki(cathepsin B)/Ki(calpain) ratio) (cathepsin B) | Sel cat. K (Ki(cathepsin K)/Ki(calpain) ratio) (cathepsin K) | Sel cat. L (Ki(cathepsin L)/Ki(calpain) ratio) (cathepsin L) | Sel cat. S (Ki(cathepsin S)/Ki(calpain) ratio) (cathepsin S) | SMILES
1 | 400 to 800 | + (5≦Ki(cathepsin B)/Ki(calpain)≦9) | ++ (9<Ki(cathepsin K)/Ki(calpain)≦30) | ++ (10<Ki(cathepsin L)/Ki(calpain)≦50) | ++ (10<Ki(cathepsin S)/Ki(calpain)≦50) | O=C(NC1CC1)C(=O)C(Cc1ccccc1)NC(=O)c1cccnc1-n1ccc(-c2cccc(N3CCOCC3)c2)n1 (stereo not drawn) [Example 26, N-[4-(Cyclopropylamino)-3,4-dioxo-1-phenyl-2-butanyl]-2-{3-[3-(4-morpholinyl)phenyl]-1H-pyrazol-1-yl}nicotinamide]
2 | 250 to 400 | ++ (9<Ki(cathepsin B)/Ki(calpain)≦30) | ++ (9<Ki(cathepsin K)/Ki(calpain)≦30) | ++ (10<Ki(cathepsin L)/Ki(calpain)≦50) | ++ (10<Ki(cathepsin S)/Ki(calpain)≦50) | COc1ccc(CC(NC(=O)c2cccnc2-n2ccc(-c3ccccc3)n2)C(=O)C(=O)NC2CC2)cc1 (stereo not drawn) [Example 22, N-[4-(Cyclopropylamino)-1-(4-methoxyphenyl)-3,4-dioxo-2-butanyl]-2-(3-phenyl-1H-pyrazol-1-yl)nicotinamide]

Continued, compound first:

Row | SMILES | Ki (calpain-I) [nM] | Sel cat. B (Ki(cathepsin B)/Ki(calpain) ratio) (cathepsin B) | Sel cat. K (Ki(cathepsin K)/Ki(calpain) ratio) (cathepsin K) | Sel cat. L (Ki(cathepsin L)/Ki(calpain) ratio) (cathepsin L) | Sel cat. S (Ki(cathepsin S)/Ki(calpain) ratio) (cathepsin S)
3 | O=C(NCCc1ccccc1)C(=O)C(Cc1ccccc1)NC(=O)c1cccnc1-n1ccc(-c2ccc(F)cc2)n1 (stereo not drawn) [Example 1, N-{3,4-Dioxo-1-phenyl-4-[(2-phenylethyl)amino]butan-2-yl}-2-[3-(4-fluorophenyl)-1H-pyrazol-1-yl]pyridine-3-carboxamide] | 250 to 400 | ++ (9<Ki(cathepsin B)/Ki(calpain)≦30) | ++ (9<Ki(cathepsin K)/Ki(calpain)≦30) | ++ (10<Ki(cathepsin L)/Ki(calpain)≦50) | ++ (10<Ki(cathepsin S)/Ki(calpain)≦50)
4 | O=C(NCc1nc2ccccc2[nH]1)C(=O)C(Cc1ccccc1)NC(=O)c1cccnc1-n1ccc(-c2ccccc2)n1 (stereo not drawn) [Example 20, N-{4-[(1H-Benzimidazol-2-ylmethyl)amino]-3,4-dioxo-1-phenyl-2-butanyl}-2-(3-phenyl-1H-pyrazol-1-yl)nicotinamide] | 800 to 1000 | ++ (9<Ki(cathepsin B)/Ki(calpain)≦30) | ++ (9<Ki(cathepsin K)/Ki(calpain)≦30) | ++ (10<Ki(cathepsin L)/Ki(calpain)≦50) | ++ (10<Ki(cathepsin S)/Ki(calpain)≦50)
5 | O=C(NCCc1ccccn1)C(=O)C(Cc1ccccc1)NC(=O)c1cccnc1-n1ccc(-c2ccc(F)cc2)n1 (stereo not drawn) [Example 3, N-(3,4-Dioxo-1-phenyl-4-{[2-(pyridin-2-yl)ethyl]amino}butan-2-yl)-2-[3-(4-fluorophenyl)-1H-pyrazol-1-yl]pyridine-3-carboxamide] | 250 to 400 | ++ (9<Ki(cathepsin B)/Ki(calpain)≦30) | ++ (9<Ki(cathepsin K)/Ki(calpain)≦30) | ++ (10<Ki(cathepsin L)/Ki(calpain)≦50) | ++ (10<Ki(cathepsin S)/Ki(calpain)≦50)
6 | O=C(NC1CC1)C(=O)C(Cc1ccccc1)NC(=O)[C@H]1CCC(=O)N1Cc1ccccc1F (mixture of isomers) [Example 30, (2R)—N-(4-(cyclopropylamino)-3,4-dioxo-1-phenylbutan-2-yl)-1-(2-fluorobenzyl)-5-oxopyrrolidine-2-carboxamide] | 400 to 800 | ++ (9<Ki(cathepsin B)/Ki(calpain)≦30) | +++ (Ki(cathepsin K)/Ki(calpain) ratio of >30) | ++ (10<Ki(cathepsin L)/Ki(calpain)≦50) | +++ (Ki(cathepsin S)/Ki(calpain) ratio of >50)
